Laboratory results taken from EP1228058B1, “BENZOPYRANYL GUANIDINE DERIVATIVES, PROCESS FOR PREPARATION THEREOF, AND PHARMACEUTICAL COMPOSITIONS CONTAINING THEM” (Dongbu Hannong Chemical Co., Ltd., priority 1999, dated 2001).
pIC50: −log10 of the molar value.

Experiments:
[1] = tested on: rat aorta; assay: Vasodilation effects on isolated blood vessels of rats (methoxamine-constricted aortic rings); type: cell-based; conditions: isolated rat aorta constricted with methoxamine (3 uM); read-out: Vasodilation Activity (in Vitro, rat aorta) (IC50)
Excerpt: Male Sprague-Dawly rats (350-450 g, obtained from the Experimental Animal Team of the Korea Research Institute of Chemical Technology) were knocked unconscious by hitting the occipital region, sacrificed by cervical dislocation, and underwent thoracotomy. After being quickly removed, the thoracic aorta was deprived of the adipose tissue and cut into aortic rings of 3 mm width. The aorta was lightly rubbed with a modified Krebs Henseleit buffer (Physiological Salt Solution, PSS) soaked cotton club to remove the inner epithelial layer therefrom. While being suspended in an organ bath containing a physiological buffer, the vascular tissue was allowed to equilibrate under a resting tension of 2 g and then, stand for 1 hour at 37 °C for stabilization with a supply of a carbogen consisting of 95% O2-5% CO2.
Thereafter, the vascular tissue was constricted with 10^-5 M phenylephrine and washed several times with PSS and this procedure was repeated again to ensure the stable reacivity of vascular smooth muscle to repetitive constriction/dilatation.
In addition, 3x10^-6 M methoxamine was used to induce an intensive constriction in the vascular smooth muscle. When the vasoconstriction induced by the methoxamine reached and maintained a maximum, test compounds and controls were cumulatively added to the organ baths in concentrations of 1, 3, 10 and 30 uM so as to induce vasodilatation. As for the controls, they were Cromakalim and BMS-180448 (the compounds of the chemical formula 2), both known to be the first generation KATP activator with potent vasodilatation and cardioprotection effects.
Following the addition of the drugs, the change in the maximal constriction induced by methoxamine was calculated to plot a concentration-dilation response curve. Through a linear regression analysis, IC50, the drug concentration at which the vascular tissue is 50% dilated, was obtained for each drug.

[2] = tested on: HUVEC; assay: Inhibition of HUVEC tube formation on Matrigel; type: cell-based, Human; design: key: -: no effect; +/-: week effect; +: moderate effect; ++: strong effect
Description: HUVEC (Human umbilical vein endothelial cells, ATCC CRL-1730) were cultured, and tubulogenesis was induced in vascular endothelial cells by plating them onto the surface of Matrigel for several hours. The effects on tube formation of the test compounds were compared with the vehicle treated controls, then confirmed their in vitro anti-angiogenic effect indirectly.

[3] = Acute oral toxicity test in rats; conditions: rat, in vivo, single oral dose in 0.5% methyl cellulose, read-out: lethal dose (LD50) for oral administration
Description: In this test six-week old SPF SD rats were used with two rats assigned to each group. The compounds of examples 1, 2, 3, 5, 7, 8, 9, 10, 13, 14, 15, 19, 22, 23, 24, 25, 26, 28, 29, 30, 31, 32, 33, 34, 35, 36, 37, 38, 39, 40, 41, 44, 46, 47, 48, 49, 51, 52, 57, 58, 60, 62, 64, 67, 68, 69, 71 and 72 were suspended in 0.5% methyl cellulose, respectively, and administered orally at a single dose of 1 g/kg using a ball-tipped needle. The dosing volume was 10 ml/kg. […] All survivors at the end of the observation period underwent laparotomy under ether anesthesia and the blood samples were taken from the abdominal aorta for hematological tests and biochemical analysis. After sacrificing the animals, autopsy was performed for macroscopic observation of the organs and tissues. Tissue samples of vital organs from macroscopic legion were removed and fixed in 10% neutral buffered formalin solution, then processed by standard procedures for histopathology and examined under light microscope. There were no significant changes in clinical symptoms, body weight and mortalities. Also in hematology, serum chemistry parameters and macroscopic observation, no drug-related changes were observed.

Row | Structure (SMILES) | pIC50 [1] | Inhibitory Effects on Tube Formation ([2]; 10 uM) | Inhibitory Effects on Tube Formation ([2]; 100 uM) | LD50 [3] [mg/kg]
1 | CC1(C)Oc2ccc(C#N)cc2C(N2CCCC2=O)C1O (centres unmarked) [Cromakalim, reference compound] | 7.17 |  |  | 
2 | COC(OC)[C@]1(C)Oc2ccc([N+](=O)[O-])cc2[C@@H](NC(=NC#N)Nc2ccc(Cl)cc2)[C@@H]1O [Example 2, (2R, 3S, 4R)-N''-cyano-N-(6-nitro-3,4-dihydro-3-hydroxy-2-methyl-2-dimethoxymethyl-2H-benzopyran-4-yl)-N'-(4-chlorophenyl)guanidine] |  | + | ++ | > 1000
3 | COC(OC)[C@@]1(C)Oc2ccc([N+](=O)[O-])cc2[C@H](NC(=NC#N)Nc2ccc(Cl)cc2)[C@H]1O [Example 10, (2S, 3R, 4S)-N''-cyano-N-(6-nitro-3,4-dihydro-3-hydroxy-2-methyl-2-dimethoxymethyl-2H-benzopyran-4-yl)-N'-(4-chlorophenyl)guanidine] |  | + | ++ | > 1000
4 | COC(OC)[C@@]1(C)Oc2ccc([N+](=O)[O-])cc2[C@@H](NC(=NC#N)Nc2cccc(C(F)(F)F)c2)[C@@H]1O [Example 15, (2S, 3S, 4R)-N''-cyano-N-(6-nitro-3,4-dihydro-3-hydroxy-2-methyl-2-dimethoxymethyl-2H-benzopyran-4-yl)-N'-(3-trifluoromethylphenyl)guanidine] | 4.85 |  |  | > 1000
5 | COc1ccc(NC(=NC#N)N[C@H]2c3cc([N+](=O)[O-])ccc3O[C@](C)(C(OC)OC)[C@@H]2O)cc1 [Example 16, (2S, 3R, 4S)-N''-cyano-N-(6-nitro-3,4-dihydro-3-hydroxy-2-methyl-2-dimethoxymethyl-2H-benzopyran-9-yl)-N'-(4-methoxyphenyl) guanidine] |  | +/- | +/- | 
6 | COC(OC)[C@@]1(C)Oc2ccc([N+](=O)[O-])cc2[C@@H](NC(=NC#N)NCc2cccc([N+](=O)[O-])c2)[C@@H]1O [Example 52, (2S, 3S, 4R)-N''-cyano-N-(6-nitro-3,4-dihydro-3-hydroxy-2-methyl-2-dimethoxymethyl-2H-benzopyran-4-yl)-N'-(3-nitrobenzyl)guanidine] |  | +/- | ++ | > 1000
7 | COC(OC)[C@]1(C)Oc2ccc(N)cc2[C@H](NC(=NC#N)NCc2ccccc2)[C@H]1O [Example 58, (2R, 3R, 4S)-N''-cyano-N-(6-amino-3,4-dihydro-3-hydroxy-2-methyl-2-dimethoxymethyl-2H-benzopyran-4-yl)-N'-benzylguanidine] |  |  |  | > 1000
8 | C[C@]1(C2OCCO2)Oc2ccc([N+](=O)[O-])cc2[C@@H](NC(=NC#N)NCc2ccccc2)[C@@H]1O [Example 60, (2S, 3S, 4R)-N''-cyano-N-(6-nitro-3,4-dihydro-3-hydroxy-2-methyl-2-([1,3]dioxolan-2-yl)-2H-benzopyran-4-yl)-N'-benzylguanidine] |  |  |  | > 1000
9 | C[C@]1(C2OCCCO2)Oc2ccc([N+](=O)[O-])cc2[C@@H](NC(=NC#N)NCc2ccccc2)[C@@H]1O [Example 62, (2S, 3S, 4R) -N''-cyano-N-(6-nitro-3,4-dihydro-3-hydroxy-2-methyl-2-([1,3]dioxan-2-yl)-2H-benzopyran-4-yl)-N'-benzylguanidine] |  |  |  | > 1000
10 | CC1(C)COC([C@@]2(C)Oc3ccc([N+](=O)[O-])cc3[C@@H](NC(=NC#N)NCc3ccccc3)[C@@H]2O)OC1 [Example 64, (2S, 3S, 4R)-N''-cyano-N-(6-nitro-3,9-dihydro-3-hydroxy-2-methyl-2-([1,3]-5,5-dimethyldioxan-2-yl)-2H-benzopyran-4-yl)-N'-benzyl guanidine] |  |  |  | > 1000
11 | CCOC(OCC)[C@@]1(C)Oc2ccc(N)cc2[C@@H](NC(=NC#N)NCc2ccccc2)[C@@H]1O [Example 67, (2S, 3S, 4R)-N''-cyano-N-(6-amino-3,4-dihydro-3-hydroxy-2-methyl-2-diethoxymethyl-2H-benzopyran-4-yl)-N'-benzylguanidine] |  |  |  | > 1000
12 | COC(=O)c1ccc2c(c1)[C@@H](NC(=NC#N)NCc1ccccc1)[C@H](O)[C@@](C)(C(OC)OC)O2 [Example 68, (2S, 3S, 4R)-N''-cyano-N-(6-methoxycarbonyl-3,4-dihydro-3-hydroxy-2-methyl-2-dimthoxymethyl-2H-benzopyran-4-yl)-N'-benzylguanidine] |  |  |  | > 1000
13 | COC(=O)c1ccc2c(c1)[C@@H](NC(=NC#N)NCc1ccccc1)[C@H](O)[C@](C)(C(OC)OC)O2 [Example 69, (2R, 3S, 4R)-N''-cyano-N (6-methoxycarbonyl-3,4-dihydro-3-hydroxy-2-methyl-2-dimthoxymethyl-2H-benzopyran-4-yl)-N'-benzylguanidine] |  |  |  | > 1000
14 | COC(OC)[C@@]1(C)Oc2c(N)cccc2[C@@H](NC(=NC#N)NCc2ccccc2)[C@@H]1O [Example 71, (2S, 3S, 4R)-N''-cyano-N-(8-amino-3,4-dihydro-3-hydroxy-2-methyl-2-dimthoxymethyl-2H-benzopyran-4-yl)-N'-benzylguanidine] |  |  |  | > 1000
15 | COC(OC)[C@]1(C)Oc2c(N)cccc2[C@@H](NC(=NC#N)NCc2ccccc2)[C@@H]1O [Example 72, (2R, 3S, 4R)-N''-cyano-N-(8-amino-3,4-dihydro-3-hydroxy-2-methyl-2-dimthoxymethyl-2H-benzopyran-4-yl)-N'-benzylguanidine] |  |  |  | > 1000
